How the values were obtained:
[1] = Expert perfumer evaluation of malodor reduction, dynamic olfactometer, against 3M2HA; design: species or system human; settings: for EFFECTIVE CONCENTRATION: MO 3M2HA held fixed at mid-intensity (0.5), headspace concentration providing an effective level; for EXPERT RATING: MO 3M2HA held fixed at mid-intensity (0.5 on scale 0-1), rating of degree of malodor reduction at the effective concentration
Experimental: (§1) The effectiveness of perfuming materials in compositions to reduce the perception of, for example, axillary sweat malodors, was evaluated by an expert perfumer by 1) selecting target axillary malodor components, 2) delivering target malodor components and candidate malodor reducing materials to the nose of an expert perfumer at carefully controlled concentrations, 3) having the expert perfumer identify the concentration at which malodor reduction was obtained, and 4) rating the degree of reduction achieved at the concentration identified in step 3.
(§2) In this method, a dynamic multi-channel olfactometer was used to precisely deliver known gas phase concentrations of the test materials, using forced evaporation, into a stream of air emanating from a smelling port. The appropriate concentration of the malodor component was established prior to its being mixed with the candidate malodor reducing substance. The concentration was set at a concentration sufficient to produce an intensity of 0.5 (mid-intensity) on a scale of 0-1. The expert perfumer then dynamically adjusted the concentration of the candidate malodor reducing substance to determine the effective concentration, while maintaining a fixed concentration of the malodor component. Once the appropriate concentration had been determined, the expert perfumer evaluated the perception of the mixtures repeatedly over a period of several minutes, taking breaks in between sniffs to avoid adaptation to the components being tested, before providing a rating.
(§3) Tests were performed in a forced-evaporation, dynamic olfactometer, with malodor component concentrations held fixed at a mid-intensity. Ratings of effectiveness were based in the following scale: −2 (significant increase in malodor), −1 (slight increase in malodor), 0 (no effect), 1 (slight malodor reduction), 2 (good malodor reduction), 3 (complete malodor reduction). The malodor (MO) component abbreviations are 3H3MHA (3-methyl-3-hydroxyhexanoic acid), 3M2HA (3-methyl-2-hexenoic acid), 3M3SH (3-methyl-3-sulphanylhexanol).

[2] = Expert perfumer evaluation of malodor reduction, dynamic olfactometer, against 3M3SH; design: species or system human; settings: for EFFECTIVE CONCENTRATION: MO 3M3SH held fixed at mid-intensity (0.5), headspace concentration providing an effective level; for EXPERT RATING: MO 3M3SH held fixed at mid-intensity (0.5 on scale 0-1), rating of degree of malodor reduction at the effective concentration
Experimental: as §1, §2, §3

## CCCCCCCCCC(C)C=O (racemic) [(+−)-2-METHYLUNDECANAL]
[1]
  EFFECTIVE CONCENTRATION: 2.33E−03 micrograms/L AIR
  EXPERT RATING: 2

## CC1(C)CCC[C@]2(C)[C@H]3CCO[C@]3(C)CC[C@@H]12 (racemic) [(3aRS,5aSR,9aSR,9bRS)-3a,6,6,9a-TETRAMETHYLDODECAHYDRONAPHTHO[2,1-b]FURAN]
[1]
  EFFECTIVE CONCENTRATION: 4.33E−03 micrograms/L AIR
  EXPERT RATING: 3
[2]
  EFFECTIVE CONCENTRATION: 2.17E−03 micrograms/L AIR
  EXPERT RATING: 3

## O=c1ccc2ccccc2o1 [2-CHROMENONE]
[1]
  EFFECTIVE CONCENTRATION: 9.83E−03 micrograms/L AIR
  EXPERT RATING: 3
[2]
  EFFECTIVE CONCENTRATION: 7.87E−02 micrograms/L AIR
  EXPERT RATING: 3

## CCOC(=O)CC1(C)OCCO1 [ETHYL 2-METHYL-1,3-DIOXOLANE-2-ACETATE]
[1]
  EFFECTIVE CONCENTRATION: 7.07E+00 micrograms/L AIR
  EXPERT RATING: 2

## C=CC(C)CCCC(C)(C)O (racemic)
[1]
  EFFECTIVE CONCENTRATION: 4.33E+00 micrograms/L AIR
  EXPERT RATING: 2

## Cc1ccc(C(C)C)c(O)c1 [THYMOL]
[1]
  EFFECTIVE CONCENTRATION: 5.17E−02 micrograms/L AIR
  EXPERT RATING: 3
[2]
  EFFECTIVE CONCENTRATION: 1.03E−01 micrograms/L AIR
  EXPERT RATING: 3

## CC(=O)/C=C/C1=C(C)CCCC1(C)C
[1]
  EFFECTIVE CONCENTRATION: 5.83E−02 micrograms/L AIR
  EXPERT RATING: 3
[2]
  EFFECTIVE CONCENTRATION: 1.17E−01 micrograms/L AIR
  EXPERT RATING: 3

## CC(=O)OC(C)(C)C1CC=C(C)CC1 (racemic) [(+−)-2-(4-METHYL-3-CYCLOHEXEN-1-YL)-2-PROPANYL ACETATE]
[1]
  EFFECTIVE CONCENTRATION: 1.08E+00 micrograms/L AIR
  EXPERT RATING: 3
[2]
  EFFECTIVE CONCENTRATION: 1.08E+00 micrograms/L AIR
  EXPERT RATING: 3

## CCCCCCCCCC=O [DECANAL]
[1]
  EFFECTIVE CONCENTRATION: 5.00E−01 micrograms/L AIR
  EXPERT RATING: 3
[2]
  EFFECTIVE CONCENTRATION: 2.50E−01 micrograms/L AIR
  EXPERT RATING: 2

## COC(=O)c1c(C)cc(O)c(C)c1O [METHYL 2,4-DIHYDROXY-3,6-DIMETHYLBENZOATE]
[1]
  EFFECTIVE CONCENTRATION: 3.50E−03 micrograms/L AIR
  EXPERT RATING: 3
[2]
  EFFECTIVE CONCENTRATION: 3.50E−03 micrograms/L AIR
  EXPERT RATING: 3

## COC(=O)/C=C/c1ccccc1 [METHYL (E)-3-PHENYL-2-PROPENOATE]
[1]
  EFFECTIVE CONCENTRATION: 7.00E−02 micrograms/L AIR
  EXPERT RATING: 3
[2]
  EFFECTIVE CONCENTRATION: 9.33E−02 micrograms/L AIR
  EXPERT RATING: 2

## C=CCOC(=O)CCCCCC [ALLYL HEPTANOATE]
[1]
  EFFECTIVE CONCENTRATION: 4.13E+00 micrograms/L AIR
  EXPERT RATING: 3

## OC/C=C/c1ccccc1 [(2E)-3-PHENYL-2-PROPEN-1-OL]
[2]
  EFFECTIVE CONCENTRATION: 6.50E−02 micrograms/L AIR
  EXPERT RATING: 2

## CCC(C)(O)CCCC(C)C (racemic)
[1]
  EFFECTIVE CONCENTRATION: 9.27E+00 micrograms/L AIR
  EXPERT RATING: 2

## CC(=O)CCc1ccccc1 [4-PHENYL-2-BUTANONE]
[1]
  EFFECTIVE CONCENTRATION: 7.50E−01 micrograms/L AIR
  EXPERT RATING: 3
[2]
  EFFECTIVE CONCENTRATION: 3.75E−01 micrograms/L AIR
  EXPERT RATING: 2

## CCC(C)c1ccc2ncccc2c1 (racemic) [(+−)-6-SEC-BUTYLQUINOLINE]
[2]
  EFFECTIVE CONCENTRATION: 1.83E−02 micrograms/L AIR
  EXPERT RATING: 3

## C[C@H]1CCO[C@@H](c2ccccc2)C1 (racemic) [(2RS,4SR)-4-METHYL-2-PHENYLTETRAHYDRO-2H-PYRAN]
[2]
  EFFECTIVE CONCENTRATION: 2.67E−01 micrograms/L AIR
  EXPERT RATING: 3

## COc1ccc(C=O)cc1 [4-METHOXYBENZALDEHYDE]
[1]
  EFFECTIVE CONCENTRATION: 6.83E−02 micrograms/L AIR
  EXPERT RATING: 2

## C=CC(C)(CC/C=C(\C)CC)OC(C)=O (racemic) [(+−)-(6E)-3,7-dimethyl-1,6-nonadien-3-yl acetate]
[2]
  EFFECTIVE CONCENTRATION: 6.67E+00 micrograms/L AIR
  EXPERT RATING: 2

## CCCCCC1(C)CCC(C)(C)C1=O (racemic)
[1]
  EFFECTIVE CONCENTRATION: 1.22E+00 micrograms/L AIR
  EXPERT RATING: 2

## CCCCCOC(=O)c1ccccc1O [PENTYL 2-HYDROXYBENZOATE]
[2]
  EFFECTIVE CONCENTRATION: 5.00E−01 micrograms/L AIR
  EXPERT RATING: 3

From patent US20230404887A1, “COMPOSITIONS TO LIMIT OR ELIMINATE THE PERCEPTION OF SWEAT MALODOR” (Firmenich SA, priority 2020, published 2023)
